The data set deals with ATP-dependent translocase ABCB1 (Homo sapiens, UniProt P08183). Kind of data set: TP_TRANSPORTER: Western in vivo, quantitative immunohistochemistry. Type of data set: functional, organism-based.
Chain of ATP-dependent translocase ABCB1 (P08183 whole entry): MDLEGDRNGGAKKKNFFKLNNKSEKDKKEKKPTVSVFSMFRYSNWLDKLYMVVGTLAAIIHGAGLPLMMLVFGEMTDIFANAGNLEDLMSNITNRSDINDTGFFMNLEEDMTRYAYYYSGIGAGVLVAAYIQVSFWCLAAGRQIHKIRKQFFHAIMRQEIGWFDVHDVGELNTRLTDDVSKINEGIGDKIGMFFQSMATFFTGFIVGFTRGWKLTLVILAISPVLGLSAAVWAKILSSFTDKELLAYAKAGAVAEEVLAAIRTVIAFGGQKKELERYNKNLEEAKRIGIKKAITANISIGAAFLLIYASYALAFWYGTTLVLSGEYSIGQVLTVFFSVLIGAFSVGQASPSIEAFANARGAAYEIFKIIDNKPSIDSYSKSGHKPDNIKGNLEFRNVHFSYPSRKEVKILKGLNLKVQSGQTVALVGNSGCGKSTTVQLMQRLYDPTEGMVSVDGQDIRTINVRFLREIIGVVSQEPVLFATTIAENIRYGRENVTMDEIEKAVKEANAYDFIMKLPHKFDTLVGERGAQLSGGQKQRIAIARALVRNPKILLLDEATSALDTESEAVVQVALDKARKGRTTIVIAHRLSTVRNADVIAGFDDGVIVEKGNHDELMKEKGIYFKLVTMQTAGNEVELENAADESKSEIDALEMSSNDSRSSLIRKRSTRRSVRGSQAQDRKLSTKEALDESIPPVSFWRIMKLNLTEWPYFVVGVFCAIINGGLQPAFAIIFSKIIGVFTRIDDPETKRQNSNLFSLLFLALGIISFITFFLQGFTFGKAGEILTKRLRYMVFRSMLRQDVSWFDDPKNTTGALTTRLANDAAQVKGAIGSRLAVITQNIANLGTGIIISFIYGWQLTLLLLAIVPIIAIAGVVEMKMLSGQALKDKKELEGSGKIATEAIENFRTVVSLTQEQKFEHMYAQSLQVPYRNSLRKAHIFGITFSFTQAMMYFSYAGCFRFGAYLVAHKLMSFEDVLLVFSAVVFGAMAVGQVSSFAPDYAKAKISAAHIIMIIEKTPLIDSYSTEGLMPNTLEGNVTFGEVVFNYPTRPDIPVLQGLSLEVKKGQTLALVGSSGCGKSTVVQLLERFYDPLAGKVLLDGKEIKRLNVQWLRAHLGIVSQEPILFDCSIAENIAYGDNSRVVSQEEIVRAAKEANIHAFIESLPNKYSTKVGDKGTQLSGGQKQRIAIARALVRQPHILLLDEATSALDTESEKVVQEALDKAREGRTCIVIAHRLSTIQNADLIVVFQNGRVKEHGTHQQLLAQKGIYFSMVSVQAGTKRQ

In the case of `CO[C@H]1/C=C/O[C@@]2(C)Oc3c(C)c(O)c4c(O)c(c(/C=N/N5CCN(C)CC5)c(O)c4c3C2=O)NC(=O)/C(C)=C\C=C\[C@H](C)[C@H](O)[C@@H](C)[C@@H](O)[C@@H](C)[C@H](OC(C)=O)[C@@H]1C` [RIFAMPIN], the Activity result is “inducer [+]”.

The record behind these values is ChEMBL document CHEMBL2074195, “The role of intestinal P-glycoprotein in the interaction of digoxin and rifampin” (J Clin Invest, 1999).
